Where only a bound is given, the exact number is not on record here.

The target in this assay is T1, CDK12/CyclinK (Homo sapiens, UniProt Q9NYV4).
T1 construct: His-CDK12 (aa Q696-S1082); made in house; host or cells: Hi-5 insect cells (baculovirus co-infection with CycK and yeast CAK1)
T1 sequence (Q9NYV4 with tags, fused parts or gaps): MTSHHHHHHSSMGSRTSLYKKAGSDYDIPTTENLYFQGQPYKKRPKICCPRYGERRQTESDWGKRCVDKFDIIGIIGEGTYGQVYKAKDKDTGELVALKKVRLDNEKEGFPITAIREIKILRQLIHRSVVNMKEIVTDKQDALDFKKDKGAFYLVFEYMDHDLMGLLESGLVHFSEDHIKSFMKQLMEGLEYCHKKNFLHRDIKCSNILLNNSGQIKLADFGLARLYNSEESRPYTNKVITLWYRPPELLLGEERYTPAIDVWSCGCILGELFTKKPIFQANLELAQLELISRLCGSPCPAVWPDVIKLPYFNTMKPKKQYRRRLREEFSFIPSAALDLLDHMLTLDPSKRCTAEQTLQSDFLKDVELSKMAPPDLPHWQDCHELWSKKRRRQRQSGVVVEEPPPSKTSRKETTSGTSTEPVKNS
T1 sequence (O75909 with tags, fused parts or gaps partner limits assumed): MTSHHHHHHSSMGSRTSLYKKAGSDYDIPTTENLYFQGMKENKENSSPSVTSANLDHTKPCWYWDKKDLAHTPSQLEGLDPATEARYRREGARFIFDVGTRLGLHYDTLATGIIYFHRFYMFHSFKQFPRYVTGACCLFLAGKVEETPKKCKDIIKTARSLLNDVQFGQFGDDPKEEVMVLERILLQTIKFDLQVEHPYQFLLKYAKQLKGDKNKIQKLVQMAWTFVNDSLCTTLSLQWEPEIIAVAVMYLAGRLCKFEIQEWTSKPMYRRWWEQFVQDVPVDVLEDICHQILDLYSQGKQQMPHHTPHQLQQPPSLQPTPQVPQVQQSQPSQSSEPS
The experiment in a line: CDK12/CycK high ATP kinase assay (TR-FRET). The conditions noted are these: 2 mM ATP (high ATP); median; read-out: CDK12/CyclinK, 2 mM ATP (high ATP), IC50 - [mol/l] (median). It counts as biochemical. An outline of the steps: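 Human His-tagged CDK12/CycK (about 0.75 nM) preincubated with compound 15 min, then reacted 60 min at 22 °C with 2 mM ATP and 1 µM biotinylated peptide in HEPES pH 7.5 buffer. Phospho-Ser62 c-Myc epitope detected by TR-FRET (665/620 nm ratio); data normalised to no-inhibitor and no-enzyme controls.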
On the technique in general: Time-resolved FRET reads energy transfer from a long-lived donor to a nearby acceptor.
Regarding `CN1CCC(n2nc(NCc3nc4c(Cl)c(F)ccc4[nH]3)c3ncc(C4CC4)nc32)CC1` [Example 31, N-[(4-chloro-5-fluoro-1H-benzimidazol-2-yl)methyl]-6-cyclopropyl-1-(1-methylpiperidin-4-yl)-1H-pyrazolo[3,4-b]pyrazin-3-amine], the IC50 is above 20 µM.

Take `CN1CCC(n2nc(NCc3nc4cc(C(F)(F)F)ccc4[nH]3)c3ncc(C4CC4)nc32)CC1` [Example 25, 6-cyclopropyl-1-(1-methylpiperidin-4-yl)-N-{[5-(trifluoromethyl)-1H-benzimidazol-2-yl]methyl}-1H-pyrazolo[3,4-b]pyrazin-3-amine]: the IC50 was determined as 17.3 µM.

In the case of `FC1(F)CCC(n2nc(NCc3nc4ccccc4[nH]3)c3ncc(C4CC4)nc32)CC1` [Example 36, N-[(1H-benzimidazol-2-yl)methyl]-6-cyclopropyl-1-(4,4-difluorocyclohexyl)-1H-pyrazolo[3,4-b]pyrazin-3-amine], the IC50 was above 20 µM.

Take `c1ccc2[nH]c(CNc3nn(C4CC5(COC5)C4)c4nc(C5CC5)cnc34)nc2c1` [Example 54, N-[(1H-benzimidazol-2-yl)methyl]-6-cyclopropyl-1-(2-oxaspiro[3.3]heptan-6-yl)-1H-pyrazolo[3,4-b]pyrazin-3-amine]: the IC50 is 11.1 µM.

With `CC(C)(C)OC(=O)N1CCC(n2nc(NCc3nc4ccccc4[nH]3)c3ncc(C4CC4)nc32)CC1` [Example 11, tert-butyl 4-(3-{[(1H-benzimidazol-2-yl)methyl]amino}-6-cyclopropyl-1H-pyrazolo[3,4-b]pyrazin-1-yl)piperidine-1-carboxylate], the IC50 was above 20 µM.

Turning to `CC(C)(O)CCn1nc(NCc2nc3ccccc3[nH]2)c2ncc(C3CC3)nc21` [Example 76, 4-(3-{[(1H-benzimidazol-2-yl)methyl]amino}-6-cyclopropyl-1H-pyrazolo[3,4-b]pyrazin-1-yl)-2-methylbutan-2-ol], the IC50 was above 20 µM.

Take `O[C@H]1C[C@H](Cn2nc(NCc3nc4ccccc4[nH]3)c3ncc(C4CC4)nc32)C1` [Example 70, trans-3-[(3-{[(1H-benzimidazol-2-yl)methyl]amino}-6-cyclopropyl-1H-pyrazolo[3,4-b]pyrazin-1-yl)methyl]cyclobutan-1-ol]: the IC50 is above 20 µM.

As to `CN(C)CCn1nc(NCc2nc3ccccc3[nH]2)c2ncc(C3CC3)nc21` [Example 68, N-[(1H-benzimidazol-2-yl)methyl]-6-cyclopropyl-1-[2-(dimethylamino)ethyl]-1H-pyrazolo[3,4-b]pyrazin-3-amine], the IC50 was above 20 µM.

Turning to `CN1CCCC(n2nc(NCc3nc4ccccc4[nH]3)c3ncc(C4CC4)nc32)CC1` (single isomer, unassigned) [Example 37, (+) or (−)-N-[(1H-benzimidazol-2-yl)methyl]-6-cyclopropyl-1-[(4R*)-1-methylazepan-4-yl]-1H-pyrazolo[3,4-b]pyrazin-3-amine], the IC50 was above 20 µM.

Take `CC1COCCC1n1nc(NCc2nc3ccccc3[nH]2)c2ncc(C3CC3)nc21` (racemic) [Example 42, (±)-cis/trans-N-[(1H-benzimidazol-2-yl)methyl]-6-cyclopropyl-1-(3-methyloxan-4-yl)-1H-pyrazolo[3,4-b]pyrazin-3-amine]: the IC50 was above 20 µM.

As for `CN1CCC(n2nc(NCc3nc4cc(F)ccc4[nH]3)c3ncc(C4CC4)nc32)CC1` [Example 4, 6-cyclopropyl-N-[(5-fluoro-1H-benzimidazol-2-yl)methyl]-1-(1-methylpiperidin-4-yl)-1H-pyrazolo[3,4-b]pyrazin-3-amine], the IC50 is above 20 µM.

Take `CN1CCC(n2nc(NCc3nc4c(F)c(F)ccc4[nH]3)c3ncc(C4CC4)nc32)CC1` [Example 9, 6-cyclopropyl-N-[(4,5-difluoro-1H-benzimidazol-2-yl)methyl]-1-(1-methylpiperidin-4-yl)-1H-pyrazolo[3,4-b]pyrazin-3-amine]: the IC50 was above 20 µM.

With `Cc1cnc2c(NCc3nc4ccccc4[nH]3)nn(C3CCN(C)CC3)c2n1` [Example 77, N-[(1H-benzimidazol-2-yl)methyl]-6-methyl-1-(1-methylpiperidin-4-yl)-1H-pyrazolo[3,4-b]pyrazin-3-amine], the IC50 is above 20 µM.

Take `CC(CCN(C)C)n1nc(NCc2nc3ccccc3[nH]2)c2ncc(C3CC3)nc21` (racemic) [Example 62, (±)-N-[(1H-benzimidazol-2-yl)methyl]-6-cyclopropyl-1-[4-(dimethylamino)butan-2-yl]-1H-pyrazolo[3,4-b]pyrazin-3-amine]: the IC50 was above 20 µM.

For `CN1CCC(n2nc(NCc3nc4cc(SC(F)(F)F)ccc4[nH]3)c3ncc(C4CC4)nc32)CC1` [Example 27, 6-cyclopropyl-1-(1-methylpiperidin-4-yl)-N-({5-[(trifluoromethyl)sulfanyl]-1H-benzimidazol-2-yl}methyl)-1H-pyrazolo[3,4-b]pyrazin-3-amine], the IC50 is 2.02 µM.

As to `c1ccc2[nH]c(CNc3nn(C4CCC4)c4nc(C5CC5)cnc34)nc2c1` [Example 49, N-[(1H-benzimidazol-2-yl)methyl]-1-cyclobutyl-6-cyclopropyl-1H-pyrazolo[3,4-b]pyrazin-3-amine], the IC50 is above 20 µM.

The values are drawn from patent publication US20230192700A1, “PYRAZOLOPYRAZINES ACTING ON CANCERS VIA INHIBITION OF CDK12” (Bayer Aktiengesellschaft, priority 2020, published 2023).
